Measurements taken from ChEMBL document CHEMBL4371049, “Semi-synthesis and anti-tumor activity of novel 25-OCH3-PPD derivatives incorporating aromatic moiety” (Bioorg Med Chem Lett, 2019).

Assays:
Type in all cases: functional, cell-based
HepG2 = assay: Antiproliferative activity against human HepG2 cells after 48 hrs by MTT assay; conditions: HepG2, 48 h
PC-3 = assay: Antiproliferative activity against human PC3 cells after 48 hrs by MTT assay; conditions: PC-3, 48 h
BGC-823 = assay: Antiproliferative activity against human BGC823 cells after 48 hrs by MTT assay; conditions: BGC-823, 48 h
DU-145 = assay: Antiproliferative activity against human DU145 cells after 48 hrs by MTT assay; conditions: DU-145, 48 h
MCF7 = assay: Antiproliferative activity against human MCF7 cells after 48 hrs by MTT assay; conditions: MCF7, 48 h

| SMILES | IC50 (HepG2) [µM] | IC50 (PC-3) [µM] | IC50 (BGC-823) [µM] | IC50 (DU-145) [µM] | IC50 (MCF7) [µM] |
| --- | --- | --- | --- | --- | --- |
| COC(C)(C)CCC[C@@](C)(O)[C@H]1CC[C@]2(C)[C@@H]1[C@H](OC(=O)c1ccccc1)C[C@@H]1[C@@]3(C)CC[C@H](O)C(C)(C)[C@@H]3CC[C@]12C | > 50 | > 50 | > 50 | > 50 | > 50 |
| COC(C)(C)CCC[C@@](C)(O)[C@H]1CC[C@]2(C)[C@@H]1[C@H](O)C[C@@H]1[C@@]3(C)CC[C@H](OC(=O)c4ccccc4Cl)C(C)(C)[C@@H]3CC[C@]12C | 19.2 | 22 | 28.1 | 18.5 | 15.6 |
| O=c1[nH]cc(F)c(=O)[nH]1 [FLUOROURACIL] | – | 23.1 | 24.8 | 25.3 | 22.6 |
| COC(C)(C)CCC[C@@](C)(O)[C@H]1CC[C@]2(C)[C@@H]1[C@H](O)C[C@@H]1[C@@]3(C)CC[C@H](OC(=O)c4ccc(I)cc4)C(C)(C)[C@@H]3CC[C@]12C | > 50 | > 50 | > 50 | 31.8 | 46.3 |
| COC(C)(C)CCC[C@@](C)(O)[C@H]1CC[C@]2(C)[C@@H]1[C@H](OC(=O)c1cc(I)ccc1Cl)C[C@@H]1[C@@]3(C)CC[C@H](OC(=O)c4cc(I)ccc4Cl)C(C)(C)[C@@H]3CC[C@]12C | > 50 | > 50 | > 50 | > 50 | > 50 |
| COC(C)(C)CCC[C@@](C)(O)[C@H]1CC[C@]2(C)[C@@H]1[C@H](O)C[C@@H]1[C@@]3(C)CC[C@H](OC(=O)c4cccc(F)c4)C(C)(C)[C@@H]3CC[C@]12C | 10.3 | 13.5 | 5.3 | 8.6 | 6.4 |
| COC(C)(C)CCC[C@@](C)(O)[C@H]1CC[C@]2(C)[C@@H]1[C@H](O)C[C@@H]1[C@@]3(C)CC[C@H](OC(=O)c4cc(Br)cc(Br)c4)C(C)(C)[C@@H]3CC[C@]12C | 43.6 | 38.4 | 36.1 | 22.6 | 41.7 |
| COC(C)(C)CCC[C@@](C)(O)[C@H]1CC[C@]2(C)[C@@H]1[C@H](OC(=O)c1ccc(Br)cc1)C[C@@H]1[C@@]3(C)CC[C@H](O)C(C)(C)[C@@H]3CC[C@]12C | > 50 | > 50 | > 50 | > 50 | > 50 |
| COC(C)(C)CCC[C@@](C)(O)[C@H]1CC[C@]2(C)[C@@H]1[C@H](OC(=O)c1ccc(Cl)cc1)C[C@@H]1[C@@]3(C)CC[C@H](OC(=O)c4ccc(Cl)cc4)C(C)(C)[C@@H]3CC[C@]12C | 41.5 | > 50 | > 50 | > 50 | 36.4 |
| COC(C)(C)CCC[C@@](C)(O)[C@H]1CC[C@]2(C)[C@@H]1[C@H](OC(=O)/C=C/c1ccc(Cl)cc1)C[C@@H]1[C@@]3(C)CC[C@H](OC(=O)/C=C/c4ccc(Cl)cc4)C(C)(C)[C@@H]3CC[C@]12C | > 50 | > 50 | > 50 | > 50 | > 50 |
| COC(C)(C)CCC[C@@](C)(O)[C@H]1CC[C@]2(C)[C@@H]1[C@H](O)C[C@@H]1[C@@]3(C)CC[C@H](OC(=O)c4ccc(Cl)cc4)C(C)(C)[C@@H]3CC[C@]12C | 25.7 | 28.3 | 26.4 | 20.5 | 19 |
| COC(C)(C)CCC[C@@](C)(O)[C@H]1CC[C@]2(C)[C@@H]1[C@H](OC(=O)c1ccc(F)cc1F)C[C@@H]1[C@@]3(C)CC[C@H](OC(=O)c4ccc(F)cc4F)C(C)(C)[C@@H]3CC[C@]12C | > 50 | 43.2 | 37.7 | > 50 | > 50 |
| COC(C)(C)CCC[C@@](C)(O)[C@H]1CC[C@]2(C)[C@@H]1[C@H](O)C[C@@H]1[C@@]3(C)CC[C@H](OC(=O)c4cc([N+](=O)[O-])cc([N+](=O)[O-])c4)C(C)(C)[C@@H]3CC[C@]12C | 14.5 | 7.5 | 9.5 | 13.4 | 11.7 |
| COC(C)(C)CCC[C@@](C)(O)[C@H]1CC[C@]2(C)[C@@H]1[C@H](O)C[C@@H]1[C@@]3(C)CC[C@H](OC(=O)c4ccccc4)C(C)(C)[C@@H]3CC[C@]12C | 17.8 | 30.4 | 35.1 | 23.5 | 18.9 |
| COC(C)(C)CCC[C@@](C)(O)[C@H]1CC[C@]2(C)[C@@H]1[C@H](OC(=O)/C=C/c1ccccc1)C[C@@H]1[C@@]3(C)CC[C@H](O)C(C)(C)[C@@H]3CC[C@]12C | > 50 | > 50 | > 50 | > 50 | > 50 |
